The text below walks through data of publication PMC3220277 (2011).

Format in all cases: binding
Test [1] has as its target T1, S100A4 (Homo sapiens, UniProt P26447). Kind of test: LC-ESI MS of covalent adducts.
The target of test [2] is T2, C3R/C86S S100A4 (Homo sapiens, UniProt P26447, C3R/C86S). Kind of test: competitive fluorescence anisotropy against FITC-MIIA. (In general: Polarisation of emitted light reports the rotation of a fluorescent probe.)
Test [3] has as its target T1, S100A4. The description is as above.
The target of test [4] is T2, C3R/C86S S100A4. The description is as above. The source holds these as a separate data set.

Structures are written as SMILES. Where two headings read alike, the source gives them in different places.

T2 sequence (P26447 2-101 C3R/C86S, one chain of several): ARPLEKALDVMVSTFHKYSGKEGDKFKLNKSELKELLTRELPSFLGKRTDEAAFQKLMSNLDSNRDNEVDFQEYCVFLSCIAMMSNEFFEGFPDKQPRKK
T1 sequence (P26447 2-101, one chain of several): as the sequence (P26447 2-101 C3R/C86S, one chain of several) above, with R2C, S85C counted along it

As usually defined, the IC50 is the midpoint of a concentration-inhibition curve. Read a high IC50 as weaker potency. With `O=C1C(SCCO)=C(SCCO)C(=O)c2ccccc21` [NSC 95397, 2,3-bis[2-hydroxyethylsulfanyl]-1,4-naphthoquinone], the values for the IC50 in test [1] and in test [2] were 1800 ± 600 nM and 5.7 ± 0.5 µM, respectively.
As to `CC1=C(SCCO)C(=O)c2ccccc2C1=O` [NSC 672121, 2-(2-hydroxyethylsulfanyl)-3-methylnaphthalene-1,4-dione], the IC50 in test [3] is 2700 ± 700 nM; in test [4] it was 5.3 ± 0.6 µM.
